In experiment [1] the target is T1, PDC-109 (Bos taurus, UniProt P02784).
T1 construct: native, purified from bull seminal plasma; 109 residues, 23-residue N-terminal stretch plus two Fn-II domains; mixture of glycoforms BSP-A1 and BSP-A2; polydisperse aggregate in solution
T1 sequence (P02784 26-134): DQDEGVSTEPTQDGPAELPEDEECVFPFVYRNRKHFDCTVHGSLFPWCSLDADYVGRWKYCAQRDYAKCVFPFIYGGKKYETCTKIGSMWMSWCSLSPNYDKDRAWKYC
The experiment is described as follows: isothermal titration calorimetry, one set of sites model. The experiment is classed as binding. As to conditions: read-out: K a×10^-5 (M^-1) (converted). From the text: isothermal titration calorimetry, one set of sites model on PDC-109

Experiment [2] addresses T1, PDC-109. The experiment is described as follows: isothermal titration calorimetry, two sets of sites model. Format: binding. As to conditions: 25 °C; stronger site of two-site fit (n = 0.9), assigned to micelles; acyl chain of lipid not given; read-out: K a (converted). On the technique in general: ITC needs no label: the signal is the heat of the interaction.

Results on four compounds are retold here after PMC3193528, “Isothermal Titration Calorimetric Studies on the Interaction of the Major Bovine Seminal Plasma Protein, PDC-109 with Phospholipid Membranes” (PLoS ONE, 2011).

Consider `CCCCCCCCCCCCCC(=O)OC[C@H](COP(=O)([O-])OCC[N+](C)(C)C)OC(=O)CCCCCCCCCCCCC` [DMPC], for which, in experiment [1], the Kd was 2.44 µM. Same read-out and setting: the figure for `CCCCCCCCCCCCCC(=O)OC[C@H](COP(=O)(O)OCC(O)CO)OC(=O)CCCCCCCCCCCCC` (stereo partly shown) [DMPG] is 38.5 µM; for `CCCCCCCCCCCCCCCC(=O)OC[C@H](COP(=O)([O-])OCC[N+](C)(C)C)OC(=O)CCCCCCCCCCCCCCC` [DPPC] it is 7.69 µM. For Lyso-PC, in experiment [2], the Kd was 1.43 µM.
